Test results published in ChEMBL document CHEMBL1201862, “PubChem BioAssay data set” (2004).
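Values below derive from 48-hour exposures of cells grown in 96-well plates, with endpoints linearly interpolated between the two concentrations bracketing the appropriate inhibition level. GI50 = concentration required for 50% inhibition of growth.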 Activity calls are given as the source filed them. Rule as the data show it: active = GI50 up to about 1.1 µM and inactive = higher.

Columns and labels:
Assay in all cases: NCI anticancer screen, dose series, 48 h
SNB-78 = system: SNB-78
LXFL 529 = system: LXFL 529
DMS-273 = system: DMS-273
XF498 = system: XF498
RXF 631 = system: RXF 631
KM-20L2 = system: KM-20L2
BT-549 = system: BT-549
MDA-N = system: MDA-N
T47D = system: T47D

Row | Structure (SMILES) | GI50 (SNB-78) | GI50 (LXFL 529) | GI50 (DMS-273) | GI50 (XF498) | GI50 (RXF 631) | GI50 (KM-20L2) | GI50 (BT-549) | GI50 (MDA-N) | GI50 (T47D)
1 | C[C@]12C/C(=C/O)C(=O)C(O)=C1CC[C@@H]1C2CC[C@@]2(C)C1CC[C@@H]2O (some centres not stated) | 19.7 µM (inactive) | 16.2 µM (inactive) | 23.5 µM (inactive) | 17.6 µM (inactive) | 20.6 µM (inactive) | 22.6 µM (inactive) |  |  | 
2 | CCCC(O)C(NC(=O)CCl)C(=O)O (configuration not stated) | > 100 µM (inactive) |  | > 100 µM (inactive) | > 100 µM (inactive) |  | > 100 µM (inactive) |  |  | 
3 | N#Cc1ccc(/C=C(/C(=O)c2ccccc2)c2ccccc2)cc1 | 2.79 µM (inactive) | 4.78 µM (inactive) | 4.82 µM (inactive) | 10.1 µM (inactive) | 11.1 µM (inactive) | 11.2 µM (inactive) |  |  | 
4 | Cc1ccc(C(C)(C)C[P+](C)(c2ccccc2)c2ccccc2)cc1 | 14.7 µM (inactive) |  | 4.89 µM (inactive) | 2.88 µM (inactive) |  | 6.1 µM (inactive) |  |  | 
5 | COc1ccc2c(c1O)C(=O)C(CCC(=O)O)CC2 (configuration not stated) | > 100 µM (inactive) | > 100 µM (inactive) | > 100 µM (inactive) | > 100 µM (inactive) | > 100 µM (inactive) | > 100 µM (inactive) |  |  | 
6 | NC(=O)c1ncn2c1NCC1OC2C(O)C1O (configuration not stated) | > 100 µM (inactive) | > 100 µM (inactive) | > 100 µM (inactive) | > 100 µM (inactive) | > 100 µM (inactive) | > 100 µM (inactive) |  |  | 
7 | OCC(O)COc1ccc(F)cc1 (configuration not stated) | > 100 µM (inactive) | > 100 µM (inactive) | > 100 µM (inactive) | > 100 µM (inactive) |  | > 100 µM (inactive) |  |  | 
8 | Nc1c(-c2nc3ccccc3[nH]2)sc(=S)n1-c1ccc(Cl)cc1 | 30.4 µM (inactive) |  | 19.8 µM (inactive) | 35.7 µM (inactive) |  |  |  |  | 
9 | CCCNC1=C(C)C(=O)C2=C(C1=O)[C@H](COC(N)=O)[C@]1(OC)[C@@H]3N[C@@H]3CN21 | 26.9 µM (inactive) |  | 0.257 µM (active) | 4.78 µM (inactive) |  | 8.75 µM (inactive) |  |  | 
10 | C[C@@H](N[C@H]1CCC[C@@H]1O)c1ccccc1.C[C@@H](N[C@H]1CCC[C@H]1O)c1ccccc1 | > 100 µM (inactive) |  | > 100 µM (inactive) | > 100 µM (inactive) |  | 38.2 µM (inactive) |  |  | 
11 | C/C=C/C(=O)Oc1cccc2cccnc12 | 27.4 µM (inactive) | 4.21 µM (inactive) | 14.6 µM (inactive) | 8.41 µM (inactive) |  | 8.07 µM (inactive) |  |  | 
12 | O=C1c2ccccc2C(=O)c2c1ccc1c2N=C(c2ccc(Br)cc2)CC(c2cccc3ccccc23)N1 (configuration not stated) | > 100 µM (inactive) | > 100 µM (inactive) | > 100 µM (inactive) | > 100 µM (inactive) | > 100 µM (inactive) | > 100 µM (inactive) |  |  | 
13 | COC(=O)C1=C(O)c2cc(OC)c(OC)c(OC)c2[C@H](c2cc(OC)c(OC)c(OC)c2)C1C(=O)OC (some centres not stated) | 32.1 µM (inactive) | 31.1 µM (inactive) | 15.8 µM (inactive) | 51.8 µM (inactive) | 41.7 µM (inactive) | 18.2 µM (inactive) |  |  | 
14 | CC(=O)OCC1=C(C(=O)O)C(c2ccc3c(c2)OCO3)c2cc3c(cc2O1)OCO3 (configuration not stated) | > 100 µM (inactive) |  | > 100 µM (inactive) | > 100 µM (inactive) | > 100 µM (inactive) | > 100 µM (inactive) |  |  | 
15 | CCNC(=O)CCN(C(=O)O)S(=O)(=O)c1ccc(NC(=O)c2ccccc2)cc1 | > 100 µM (inactive) | > 100 µM (inactive) | 23.8 µM (inactive) | > 100 µM (inactive) |  | > 100 µM (inactive) |  |  | 
16 | Cc1c(C(=O)C/C(=N/NC(=O)CC#N)C(N)=O)[n+]([O-])c2ccccc2[n+]1[O-] | 88.3 µM (inactive) | 74.1 µM (inactive) | 42 µM (inactive) | > 100 µM (inactive) | 87.3 µM (inactive) | 45.2 µM (inactive) |  |  | 
17 | COc1ccc2c(c1)c1c(C)c3cnccc3c(C)c1n2CCCN | 0.286 µM (active) |  | 0.1 µM (active) | 0.422 µM (active) |  | 0.119 µM (active) | 1.29 µM (inactive) | 0.114 µM (active) | 0.284 µM (active)
18 | COc1ccc2oc(-c3ccncc3)cc(=O)c2c1 |  | > 100 µM (inactive) | 62.8 µM (inactive) | > 100 µM (inactive) | 40.5 µM (inactive) |  |  |  | 
19 | O=C1CC2(CCC3=C(O2)c2ccccc2NC(=O)C3)C(=O)c2ccccc2N1 (configuration not stated) | > 100 µM (inactive) | > 100 µM (inactive) | > 100 µM (inactive) | > 100 µM (inactive) |  | > 100 µM (inactive) |  |  | 
20 | COc1cc(CC2c3cc(OC)c(OC)cc3CCN2C)c(Oc2cc3c(cc2OC)-c2c(OC)c(OC)c(OC)c4c2C(C3)N(C)CC4)cc1OC (configuration not stated) | 17.4 µM (inactive) | 13.7 µM (inactive) | 12.5 µM (inactive) | 13 µM (inactive) |  | 5.93 µM (inactive) |  |  | 
